The results in this text go back to patent US10550110B2, “Tetrahydroquinoline sulfonamide derivatives as inverse agonists of retinoid-related orphan receptor gamma (ROR gamma (t))” (GALDERMA RESEARCH & DEVELOPMENT, priority 2014, dated 2020).

Read-outs that look alike come from different tables or passages of the source.

Experiment [1] deals with T1, ROR gamma ligand-binding domain (LBD) (hRORg) (Homo sapiens, UniProt P51449).
T1 construct: expressed in transfected cells; host or cells: HG5LN (HeLa line with GAL4-responsive luciferase reporter)
T1 sequence (P51449 269-508 limits assumed): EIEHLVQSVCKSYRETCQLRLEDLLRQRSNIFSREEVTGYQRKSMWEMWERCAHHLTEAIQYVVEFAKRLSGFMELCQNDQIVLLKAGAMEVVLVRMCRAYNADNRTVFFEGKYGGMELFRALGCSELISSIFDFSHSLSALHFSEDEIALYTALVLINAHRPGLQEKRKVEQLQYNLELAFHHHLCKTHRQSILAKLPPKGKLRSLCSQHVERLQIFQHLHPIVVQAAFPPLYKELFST
Nature of the experiment: GAL4-RORγ transactivation (luciferase reporter, HG5LN HeLa line). Format: cell-based. The settings on record: HG5LN HeLa line with GAL4 DBD fused to ROR gamma LBD, 18 hours incubation. In a few lines:
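HeLa HG5LN cells stably carrying a GAL4-responsive luciferase reporter and GAL4 DBD–RORγ LBD fusion; seeded 4 h, then compound 18 h at 37 °C, 5% CO2. Luminescence normalized between DMSO and saturating reference-inhibitor controls as % inhibition; IC50 from 4-parameter logistic fit.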
In general terms: A reporter such as luciferase makes a cellular process visible.

In experiment [2] the test system is IL-17A secretion by CD4+ cells. In words: IL-17A secretion by CD4+ cells (HTRF). Format: cell-based. The settings on record: human peripheral blood CD4+ cells activated with anti-CD3 and anti-CD28, 4 days incubation, IL-17A by HTRF, read-out: IC50 hCD4/IL17. How it is done:
This model allows measurement of the effect of inhibitors on IL-17A secretion by CD4+ cells. The cells are frozen CD4+ cells (STEMCELL, #70026), isolated from peripheral human blood and activated with anti-CD3 and anti-CD28 antibodies. The amount of IL-17A secreted is measured by the TR-FRET (kit HTRF® Human Interleukin 17A (Cisbio, #64H17PEC)) technology.
The cells are rapidly thawed, resuspended in their culture medium (RPMI inactivated 10% FCS) supplemented with soluble anti-CD28 antibodies and seeded (100 000 cells/well) in 96-well plates precoated with anti-CD3 antibodies. The cells are then treated with the ranges of inhibitors to be tested (from 1000 nM to 0.05 nM, 0.1% DMSO). After 4 days of incubation, the HTRF signal is measured using a microplate reader (λexcitation=337 nm, λemission=620/665 nm). The ratios obtained (665/620) are normalized relative to the positive control (cells activated with anti-CD3 and anti-CD28, 0.1% DMSO). The IC50 values are calculated from a 4-parameter logistic model using the XLFit software (IDBS).

As to `CCc1ccc(N(CC(C)C)S(=O)(=O)c2ccc3c(c2)C(O)CCN3CC2CC(O)C2)cc1` (mixture of isomers) [Compound 20, 4-hydroxy-1-(3-hydroxycyclobutylmethyl)-1,2,3,4-tetrahydroquinoline-6-sulfonic acid (4-ethylphenyl)isobutylamide], the IC50 in experiment [1] was 100 to 1000 nM; in experiment [2] (96 h), less than 100 nM.
For `CCc1ccc(N(CC(C)C)S(=O)(=O)c2ccc3c(c2)C(O)CCN3CC2CCOCC2)cc1` (racemic) [Compound 2, 4-hydroxy-1-(tetrahydropyran-4-ylmethyl)-1,2,3,4-tetrahydroquinoline-6-sulfonic acid (4-ethylphenyl)isobutylamide], the figures for the IC50 in experiment [1] and in experiment [2] (96 h) were less than 100 nM and 100 to 1000 nM, respectively.
On to `CCc1ccc(N(CC(C)C)S(=O)(=O)c2ccc3c(c2)C(O)CCN3CC2CCOCC2)cc1` (single isomer, unassigned) [Enantiomer 1, 4-hydroxy-1-(tetrahydropyran-4-ylmethyl)-1,2,3,4-tetrahydroquinoline-6-sulfonic acid (4-ethylphenyl)isobutylamide], for which the IC50 in experiment [1] and in experiment [2] was less than 100 nM each time.
For `CCc1ccc(N(CC(C)C)S(=O)(=O)c2ccc3c(c2)C(O)CCN3CC2CCOCC2)cc1` (single isomer, unassigned) [Enantiomer 2, 4-hydroxy-1-(tetrahydropyran-4-ylmethyl)-1,2,3,4-tetrahydroquinoline-6-sulfonic acid (4-ethylphenyl)isobutylamide], the results for the IC50 in experiment [1] and in experiment [2] (96 h) were 100 to 1000 nM and less than 100 nM, respectively.
For `CCc1ccc(N(CC(C)C)S(=O)(=O)c2ccc3c(c2)C(=O)CCN3CC2CCOCC2)cc1` [Compound 1, 4-oxo-1-(tetrahydropyran-4-ylmethyl)-1,2,3,4-tetrahydroquinoline-6-sulfonic acid (4-ethylphenyl)isobutylamide] the same measures were 100 to 1000 nM and 100 to 1000 nM.
The matching figures for `CCc1ccc(N(CC(C)C)S(=O)(=O)c2ccc3c(c2)C(=O)CCN3Cc2ccncc2)cc1` [Compound 4, 4-oxo-1-pyridin-4-ylmethyl-1,2,3,4-tetrahydroquinoline-6-sulfonic acid (4-ethylphenyl)isobutylamide]: less than 100 nM and less than 100 nM.
For `CCc1ccc(N(CC(C)C)S(=O)(=O)c2ccc3c(c2)C(O)CCN3Cc2ccncc2)cc1` (stereo not shown) [Compound 10, 4-hydroxy-1-pyridin-4-ylmethyl-1,2,3,4-tetrahydroquinoline-6-sulfonic acid (4-ethylphenyl)isobutylamide] the same measures were less than 100 nM and less than 100 nM.
On to `CCc1ccc(N(CC(C)C)S(=O)(=O)c2ccc3c(c2)C(O)CCN3Cc2ccnc(F)c2)cc1` (stereo not shown) [Compound 11, 1-(2-fluoropyridin-4-ylmethyl)-4-hydroxy-1,2,3,4-tetrahydroquinoline-6-sulfonic acid (4-ethylphenyl)isobutylamide], for which the IC50 in experiment [1] and in experiment [2] (96 h) was less than 100 nM in each case.
As for `CCc1ccc(N(CC(C)C)S(=O)(=O)c2ccc3c(c2)C(O)CCN3CC2(C)CCOCC2)cc1` (stereo not shown) [Compound 14, 1-(4-methyltetrahydropyran-4-ylmethyl)-4-hydroxy-1,2,3,4-tetrahydroquinoline-6-sulfonic acid (4-ethylphenyl)isobutylamide], the IC50 in experiment [1] and in experiment [2] (96 h) was less than 100 nM throughout.
For the compound `CCc1ccc(N(CC(C)C)S(=O)(=O)c2ccc3c(c2)C(O)CCN3CC2(F)CCOCC2)cc1` (stereo not shown) [Compound 15, 1-(4-fluorotetrahydropyran-4-ylmethyl)-4-hydroxy-1,2,3,4-tetrahydroquinoline-6-sulfonic acid (4-ethylphenyl)isobutylamide], the IC50 in experiment [1] is 100 to 1000 nM; in experiment [2] (96 h), less than 100 nM.
For `CCc1ccc(N(CC(C)C)S(=O)(=O)c2ccc3c(c2)C(O)CCN3CC2(C)COC2)cc1` (stereo not shown) [Compound 19, 4-hydroxy-1-(3-methyloxetan-3-ylmethyl)-1,2,3,4-tetrahydroquinoline-6-sulfonic acid (4-ethylphenyl)isobutylamide], the IC50 was 100 to 1000 nM in experiment [1] and less than 100 nM in experiment [2] (96 h).
As to `CCc1ccc(N(CC(C)C)S(=O)(=O)c2ccc3c(c2)C(O)CCN3Cc2ccnnc2)cc1` (stereo not shown) [Compound 29, 4-hydroxy-1-pyridazin-4-ylmethyl-1,2,3,4-tetrahydroquinoline-6-sulfonic acid (4-ethylphenyl)isobutylamide], the IC50 in experiment [1] and in experiment [2] (96 h) was less than 100 nM each time.
`CCc1ccc(N(CC(C)C)S(=O)(=O)c2ccc3c(c2)C(O)CCN3C[C@H]2[C@@H]3COC[C@@H]32)cc1` (stereo partly drawn) [Compound 37, 4-hydroxy-1-[(1S,5R,6S)-1-(3-oxabicyclo[3.1.0]hex-6-yl)methyl]-1,2,3,4-tetrahydroquinoline-6-sulfonic acid (4-ethylphenyl)isobutylamide]: the IC50 in experiment [1] and in experiment [2] (96 h) was less than 100 nM in each case.
For the compound `CCc1ccc(N(CC(C)C)S(=O)(=O)c2ccc3c(c2)C(O)CCN3Cc2cn[nH]c2)cc1` (stereo not shown) [Compound 45, 4-hydroxy-1-(1H-pyrazol-4-ylmethyl)-1,2,3,4-tetrahydroquinoline-6-sulfonic acid (4-ethylphenyl)isobutylamide], the IC50 is 100 to 1000 nM in experiment [1] and less than 100 nM in experiment [2] (96 h).
For the compound `CCc1ccc(N(CC(C)C)S(=O)(=O)c2ccc3c(c2)C(O)CCN3CC2CN(C(=O)OC)C2)cc1` (stereo not shown) [Compound 46, methyl ester of 3-{6-[(4-ethylphenyl)isobutylsulfamoyl]-4-hydroxy-3,4-dihydro-2H-quinolin-1-ylmethyl}azetidine-1-carboxylic acid], the IC50 in experiment [1] and in experiment [2] (96 h) was 100 to 1000 nM each time.
In experiment [1], `CCc1ccc(N(CC(C)C)S(=O)(=O)c2ccc3c(c2)C(O)CCN3C2CCN(S(C)(=O)=O)CC2)cc1` (stereo not shown) [Compound 64, 4-hydroxy-1-(1-methanesulfonylpiperidin-4-yl)-1,2,3,4-tetrahydroquinoline-6-sulfonic acid (4-ethylphenyl)isobutylamide] returned an IC50 of more than 1000 nM.
Still for that read-out and setting: the result for `COc1ccc(N(C(C)C)S(=O)(=O)c2ccc3c(c2)C(O)CCN3Cc2cn[nH]c2)c(C)c1` (stereo not shown) [Compound 65, 4-hydroxy-1-(1H-pyrazol-4-ylmethyl)-1,2,3,4-tetrahydroquinoline-6-sulfonic acid isopropyl(4-methoxy-2-methylphenyl)amide] reads more than 1000 nM.
With `Cc1cc(C)c(N(CC(C)C)S(=O)(=O)c2ccc3c(c2)C(O)CCN3CC2CCOCC2)cn1` (stereo not shown) [Compound 66, 4-hydroxy-1-(tetrahydropyran-4-ylmethyl)-1,2,3,4-tetrahydroquinoline-6-sulfonic acid (4,6-dimethylpyridin-3-yl)isobutylamide], the IC50 in experiment [1] and in experiment [2] (96 h) was more than 1000 nM throughout.
